The assay deals with ALCAT1 (Homo sapiens (Human), UniProt Q6UWP7). As to the kind of experiment: In vitro acyltransferase assay for ALCAT1 inhibitors. It is filed as biochemical. Conditions: for inhibition at 1 µM / % inh @ 1 μM: 1 μM compound; for inhibition at 1 µM / inhibition at 10 µM / % inh @ 1 μM: in vitro enzymatic assay; for inhibition at 10 µM: 10 μM compound; for IC50: ALCAT1 enzyme activity. The source says:
The human ALCAT1 protein were expressed in Spodoptera frugiperda (Sf9) insect cells by using a Bac-to-Bac baculovirus expression system (Invitrogen) according to the manufacturer's instruction. High-titer recombinant baculovirus expressing the human ALCAT1 protein was generated by several rounds of viral amplification. The Sf9 cells were typically infected with recombinant baculovirus for 3 days, harvested in ice-cold phosphate-buffered saline (PBS), and homogenized in 20 mm NaCl by going through French press. The total cell lysates were centrifuged at 10,000×g for 1 hours at 4° C. to eliminate the nucleus fraction, followed by ultracentrifugation at 100,000×g to pallet the membrane fraction. The membrane fraction was resuspended in enzymatic buffer that contain 10% glycerol, quantified for protein concentration, aliquoted, and stored at −80° C.
ALCAT1 enzymatic activity was determined by measuring the conversion of monolysocardiolipin (MLCL) to cardiolipin or lysophosphatidylglycerol (LPG) to phosphatidylglycerol (PG) in an enzymatic reaction mixture that contained 50 mm Tris/HCl, pH 7.0, 100 μm lysophospholipids, 25 μm [^14C]acyl-CoA (50 mCi/mmol, American Radiolabeled Chemicals, Inc), and membrane fraction (0.5-2.5 μg) in a total volume of 200 μl. The reaction was incubated at room temperature for 30 min. The lipids were extracted will chloroform, dried, and separated by thin layer chromatography (TLC) with chloroform:hexane:methanol:acetic acid (50:30:10:5, v/v) or chloroform:methanol:water (65:25:4, v/v). After separation, TLC plates were exposed to a Phosphorlmager screen to visualize the radiolabeled products with a Molecular Dynamics Typhoon Scanner (Sunnyvale, Calif.). In some experiments, NBD-CoA was used at 100 μM to replace the [^14C]acyl-CoA in the enzymatic reaction. All quantitative data were expressed as mean±S.E. Statistical analyses for differences between two groups were carried out using a Student's t test.
Compound inhibitors for ALCAT1 enzyme were analyzed by an in vitro enzymatic assay as detailed above. Compound inhibitors were added to the enzymatic mixture at 1-20 μM concentrations before the start of the acyltransferase reaction.
Where multiple measurements were taken this is indicated by a “/” between multiple values.
IC50 values for each compound were analyzed in triplicates, and calculated by GraphPad software.

Where [1] appears, read: triplicates, GraphPad, read-out: IC50.

The structures appear in SMILES notation. Where two headings read alike, the source gives them in different places. Where only a bound is given, the exact number is not on record here.

ALCAT1, sequence (Q6UWP7 whole entry): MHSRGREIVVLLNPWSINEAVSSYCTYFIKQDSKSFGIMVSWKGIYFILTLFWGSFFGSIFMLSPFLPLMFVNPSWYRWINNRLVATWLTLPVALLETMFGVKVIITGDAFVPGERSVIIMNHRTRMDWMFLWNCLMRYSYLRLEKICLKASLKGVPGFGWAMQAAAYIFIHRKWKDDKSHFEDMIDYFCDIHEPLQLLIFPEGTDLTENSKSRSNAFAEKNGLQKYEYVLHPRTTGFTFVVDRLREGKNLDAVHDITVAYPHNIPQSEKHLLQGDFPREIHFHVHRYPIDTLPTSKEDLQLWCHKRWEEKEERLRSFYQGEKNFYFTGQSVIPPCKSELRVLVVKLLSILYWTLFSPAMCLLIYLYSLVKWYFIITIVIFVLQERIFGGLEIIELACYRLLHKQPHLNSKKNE

Compound `O=C(Nc1cccc(-c2nnc(-c3ccco3)o2)c1)c1ccc(I)cc1` [Compound 84] registered an inhibition at 1 µM of 5%.

Consider `O=C(Nc1cccc(-c2nnc(-c3ccco3)o2)c1)c1ccc([N+](=O)[O-])cc1` [Compound 85], for which the inhibition at 1 µM turned out to be 10% and the inhibition at 10 µM was 3%.

As for `O=C(Nc1cccc(-c2nnc(-c3ccco3)o2)c1)c1cccc([N+](=O)[O-])c1` [Compound 87], the inhibition at 1 µM amounted to 29% and the inhibition at 10 µM came to 62%.

`O=C(Nc1cccc(-c2nnc(-c3ccco3)o2)c1)C1CCCCC1` [Compound 98]: at 1 µM the inhibition was 11% and testing at 10 µM gave an inhibition of 2%.

`O=C(Nc1cccc(-c2nnc(-c3ccco3)o2)c1)c1ccco1` [Compound 100] gave an inhibition at 1 µM of 3% and an inhibition at 10 µM of 7%.

For `COc1ccc(I)cc1C(=O)Nc1cccc(-c2nnc(-c3ccco3)o2)c1` [Compound 113], the inhibition at 1 µM came out at 96% and the inhibition at 10 µM came out at 94%. Further, under setting [1], the IC50 came out at 110 nM.

`COc1ccc(C(=O)O)cc1C(=O)Nc1cccc(-c2nnc(-c3ccco3)o2)c1` [Compound 114] had an inhibition at 1 µM of 36% and an inhibition at 10 µM of 48%.

On to `COC(=O)c1ccc(OC)c(C(=O)Nc2cccc(-c3nnc(-c4ccco4)o3)c2)c1` [Compound 115], for which testing at 1 µM gave an inhibition of 51% and the inhibition at 10 µM was 53%.

`CCCOc1ccc(Br)cc1C(=O)Nc1cccc(-c2nnc(-c3ccco3)o2)c1` [Compound 119, 5-Bromo-N-(3-(5-(furan-2-yl)-1,3,4-oxadiazol-2-yl)phenyl)-2-propoxybenzamide] came in with an inhibition at 1 µM of 92% and an inhibition at 10 µM of 95%. Further, under setting [1], the IC50 came to 90 nM.

Consider `COc1ccc(Br)cc1C(=O)Nc1cccc(-c2nnc(-c3ccco3)o2)c1` [Compound 120, 5-Bromo-N-(3-(5-(furan-2-yl)-1,3,4-oxadiazol-2-yl)phenyl)-2-methoxybenzamide], for which the inhibition at 1 µM was 94% and the inhibition at 10 µM came out at 100%. Further, the IC50 under setting [1] was determined as 38 nM.

For `CCOc1ccc(Cl)cc1C(=O)Nc1cccc(-c2nnc(-c3ccco3)o2)c1` [Compound 122, 5-Chloro-2-ethoxy-N-(3-(5-(furan-2-yl)-1,3,4-oxadiazol-2-yl)phenyl)benzamide], the inhibition at 1 µM amounted to 100% and testing at 10 µM gave an inhibition of 100%. Besides, under setting [1], the IC50 came to 39 nM.

In turn, `CCCOc1ccc(Cl)cc1C(=O)Nc1cccc(-c2nnc(-c3ccco3)o2)c1` [Compound 123, 5-Chloro-N-(3-(5-(furan-2-yl)-1,3,4-oxadiazol-2-yl)phenyl)-2-propoxybenzamide] came in with an inhibition at 1 µM of 90% and an inhibition at 10 µM of 100%. For the same compound, under setting [1], the IC50 was determined as 87 nM.

As for `COc1ccc(Cl)cc1C(=O)Nc1cccc(-c2nnc(-c3ccco3)o2)c1` [Compound 124, 5-Chloro-N-(3-(5-(furan-2-yl)-1,3,4-oxadiazol-2-yl)phenyl)-2-methoxybenzamide], the inhibition at 1 µM worked out at 92% and 10 µM produced 100% inhibition. Also, the IC50 under setting [1] is 62 nM.

With `CCOc1ccc(F)cc1C(=O)Nc1cccc(-c2nnc(-c3ccco3)o2)c1` [Compound 125, 2-Ethoxy-5-fluoro-N-(3-(5-(furan-2-yl)-1,3,4-oxadiazol-2-yl)phenyl)benzamide], testing at 1 µM gave an inhibition of 92% and at 10 µM the inhibition was 97%. The IC50 under setting [1] is 67 nM.

The compound `CCCOc1ccc(F)cc1C(=O)Nc1cccc(-c2nnc(-c3ccco3)o2)c1` [Compound 126] came in with an inhibition at 1 µM of 83% and an inhibition at 10 µM of 100%. The IC50 under setting [1] was 110 nM.

Compound `COc1ccc(F)cc1C(=O)Nc1cccc(-c2nnc(-c3ccco3)o2)c1` [Compound 127] returned an inhibition at 1 µM of 85% and an inhibition at 10 µM of 100%. Moreover, the IC50 under setting [1] turned out to be 210 nM.

On to `COc1ccccc1C(=O)Nc1cc(-c2nnc(-c3ccco3)o2)ccc1F` [Compound 128, N-(2-Fluoro-5-(5-(furan-2-yl)-1,3,4-oxadiazol-2-yl)phenyl)-2-methoxybenzamide], for which the inhibition at 1 µM is 100% and 10 µM produced 100% inhibition. Further, the IC50 (read-out: IC50 values (upper bounds)) is below 100 nM. Also, under setting [1], the IC50 worked out at 29 nM.

With `O=C(Nc1cc(F)cc(-c2nnc(-c3ccco3)o2)c1)c1ccccc1F` [Compound 130], the “% inh @ 1 μM” value is on record as 57% and the inhibition at 1 µM amounted to 50%.

Take `Cc1cc(NC(=O)c2ccccc2F)cc(-c2nnc(-c3ccco3)o2)c1` [Compound 132]: the “% inh @ 1 μM” value came out at 39% and 1 µM produced 26% inhibition.

Regarding `COc1cc(NC(=O)c2ccccc2F)cc(-c2nnc(-c3ccco3)o2)c1` [Compound 133], the “% inh @ 1 μM” value is reported as 17% and 1 µM produced 19% inhibition.

For `O=C(Nc1cccc(-c2nnc(-c3ccco3)s2)c1)c1ccccc1F` [Compound 135], the “% inh @ 1 μM” value came to 62% and the inhibition at 1 µM stood at 56%.

As to `COc1ccc(NC(=O)c2ccccc2F)cc1-c1nnc(-c2ccco2)o1` [Compound 136], the “% inh @ 1 μM” value was 23% and at 1 µM the inhibition was 28%.

As to `O=C(Nc1cccc(-c2nnc(-c3cnco3)o2)c1)c1ccccc1F` [Compound 137], the “% inh @ 1 μM” value was 48% and the inhibition at 1 µM worked out at 37%.

For `O=C(Nc1cc(-c2nnc(-c3ccno3)o2)ccc1F)c1ccccc1F` [Compound 139], the “% inh @ 1 μM” value is 48% and the inhibition at 1 µM was determined as 50%.

In turn, `COc1c(NC(=O)c2ccccc2F)cccc1-c1nnc(-c2ccco2)o1` [Compound 140] registered an inhibition at 1 µM of 29%.

In turn, `O=C(Nc1cccc(-c2nnc(-c3ccco3)o2)c1)c1cc(Br)ccc1I` [Compound 141] displayed an inhibition at 1 µM of 65% and an inhibition at 10 µM of 67%.

As to `O=C(Nc1cccc(-c2nnc(-c3ccco3)o2)c1)c1c(F)cccc1F` [Compound 143], the inhibition at 1 µM is 13% and testing at 10 µM gave an inhibition of 17%.

Turning to `O=C(Nc1cccc(-c2nnc(-c3ccco3)o2)c1)c1cc(F)c(F)cc1F` [Compound 144], the inhibition at 1 µM amounted to 73% and the inhibition at 10 µM was found to be 92%. Besides, the IC50 under setting [1] amounted to 130 nM.

For the compound `O=C(Nc1cccc(-c2nnc(-c3ccco3)o2)c1)c1c(F)cccc1Cl` [Compound 145], testing at 1 µM gave an inhibition of 9% and testing at 10 µM gave an inhibition of 38%.

For `O=C(Nc1cccc(-c2nnc(-c3ccco3)o2)c1)c1cccc(Cl)c1Cl` [Compound 150], the inhibition at 1 µM came out at 72% and the inhibition at 10 µM is 92%. In addition, the IC50 under setting [1] worked out at 410 nM.

Turning to `COc1cccc(C(=O)Nc2cccc(-c3nnc(-c4ccco4)o3)c2)c1OC` [Compound 169], 1 µM produced 74% inhibition and the inhibition at 10 µM turned out to be 93%. Further, the IC50 under setting [1] was found to be 470 nM.

In the case of `COc1cccc(OC)c1C(=O)Nc1cccc(-c2nnc(-c3ccco3)o2)c1` [Compound 170], the inhibition at 1 µM worked out at 20% and testing at 10 µM gave an inhibition of 27%.

Regarding `COc1ccc(OC)c(C(=O)Nc2cccc(-c3nnc(-c4ccco4)o3)c2)c1` [Compound 171], at 1 µM the inhibition was 79% and the inhibition at 10 µM is 100%. Under setting [1], the IC50 was 350 nM.

The values above are taken from patent US11208404B2 (PERENNA PHARMACEUTICALS, INC., priority 2017, dated 2021).
